Reference: patent US3966715A, “Herbicidal agents” (Bayer Aktiengesellschaft, priority 1966, dated 1976)

Key:
Type in all cases: in vivo
Conditions in all cases: three weeks
Echinochloa [1] = experiment: Post-emergence test, Echinochloa
Description: (§1) Solvent: 5 parts by weight acetone
(§2) 1 part by weight benzyloxypolyglycol ether
(§3) To produce a suitable preparation of the particular active compound, 1 part by weight of such active compound is mixed with the stated amount of solvent, the stated amount of emulsifier is then added and the resulting concentrate is thereafter diluted with water to the desired final concentration.
(§4) Test plants which have a height of about 5--15 cm. are sprayed with the preparation of the given active compound until just dew moist. After three weeks, the degree of damage to the plants is determined and characterized by the values 0-5, which have the following meaning:
(§5) The procedure of Example 2 is repeated, and the particular active compounds tested, and amounts applied, and the results obtained can be seen from the following Table 2E: […]

Wheat [2] = experiment: Post-emergence test, wheat
Description: as §1, §2, §3, §4, §5

Oats [3] = experiment: Post-emergence test, oats
Description: as §1, §2, §3, §4, §5

Stellaria = experiment: Post-emergence test, Stellaria
Description: as §1, §2, §3, §4, §5

Cotton [4] = experiment: Pre-emergence test, cotton
Description: as §1, §2, §3
(§6) Seeds of the test plants are sown in normal soil and, after 24 hours, watered with the preparation of the given active compound. It is expedient to keep constant the amount of water per unit area. The concentration of the particular active compound in the preparation is of no importance, only the amount of active compound applied per unit area being decisive. After three weeks, the degree of damage to the test plants is determined and characterized by the values 0-5, which have the following meaning:
(§7) The procedure of Example 1 is repeated, and the particular active compounds tested, the amounts applied, and the results obtained can be seen from the following Table 1D: […]

Wheat [5] = experiment: Pre-emergence test, wheat
Description: as §1, §2, §3, §6, §7

Cotton [6] = experiment: Post-emergence test, cotton
Description: as §1, §2, §3, §4, §5

Echinochloa [7] = experiment: Pre-emergence test, Echinochloa
Description: as §1, §2, §3, §6, §7

Oats [8] = experiment: Pre-emergence test, oats
Description: as §1, §2, §3, §6, §7

`CNc1nnc(C(C)(C)C)c(=O)n1N` [Compound 175, 3-methylamino-4-amino-6-tert.-butyl-1,2,4-triazine-5-one] was tested, and the “degree of damage, Echinochloa” value (Echinochloa [1]; 0.6 Kg/hectare) was 4-5, the “degree of damage, Echinochloa” value (Echinochloa [1]; 1.2 Kg/hectare) was 4-5 and the “degree of damage, Wheat” value (Wheat [2]; 2.4 Kg/hectare) was 4-5. The “degree of damage, Oats” value (Oats [3]; 0.6 Kg/hectare) was 4-5 and the “degree of damage, Oats” value (Oats [3]; 1.2 Kg/hectare) was 4-5.
For `CSc1nnc(C(C)C)c(=O)n1N=Cc1ccccc1C` [Compound 206, 3-methylthio-4-(2'-methyl-benzylidene-amino)-6-isopropyl-1,2,4-triazine-5-one], the “degree of damage, Stellaria” value (Stellaria; 0.6 Kg/hectare) was 4-5, the “degree of damage, Cotton” value (Cotton [4]; 1.25 kg/hectare) was 4-5 and the “degree of damage, Wheat” value (Wheat [2]; 1.2 Kg/hectare) was 3-4. The “degree of damage, Oats” value (Oats [3]; 2.4 Kg/hectare) was 4-5.
For `CSc1nnc(C(C)C)c(=O)n1N=Cc1ccccc1` [Compound 198, 3-methylthio-4-(benzylidene-amino)-6-isopropyl-1,2,4-trizaine-5-one], the “degree of damage, Stellaria” value (Stellaria; 0.6 Kg/hectare) was 4-5, the “degree of damage, Wheat” value (Wheat [5]; 1.25 kg/hectare) was 4-5 and the “degree of damage, Oats” value (Oats [3]; 0.6 Kg/hectare) was 3-4. For the same molecule, the “degree of damage, Oats” value (Oats [3]; 2.4 Kg/hectare) was 4-5.
In the case of `CSc1nnc(C(C)C)c(=O)n1N=C1CCCCC1` [Compound 204, 3-methylthio-4-(cyclohexylidene-amino)-6-isopropyl-1,2,4-triazine-5-one], the “degree of damage, Stellaria” value (Stellaria; 0.6 Kg/hectare) is reported as 4-5 and the “degree of damage, Wheat” value (Wheat [5]; 1.25 kg/hectare) is reported as 4-5.
`CSc1nnc(C2CCCCC2)c(=O)n1N=Cc1ccco1` [Compound 226, 3-methylthio-4-(furfur-2'-ylidene-amino)-6-cyclohexyl-1,2,4-triazine-5-one] was tested, and the “degree of damage, Cotton” value (Cotton [4]; 5 kg/hectare) was 3-4, the “degree of damage, Cotton” value (Cotton [6]; 2.4 Kg/hectare) was 4-5 and the “degree of damage, Echinochloa” value (Echinochloa [7]; 2.5 kg/hectare) was 4-5. For the same molecule, the “degree of damage, Oats” value (Oats [8]; 5 kg/hectare) was 4-5 and the “degree of damage, Oats” value (Oats [3]; 2.4 Kg/hectare) was 4-5.
With `COc1ccc(C=Nn2c(SC)nnc(C(C)C)c2=O)cc1` [Compound 207, 3-methylthio-4-(4'-methoxy-benzylidene-amino)-6-isopropyl-1,2,4-triazine-5-one] the “degree of damage, Wheat” value (Wheat [5]; 5 kg/hectare) was 4-5, the “degree of damage, Cotton” value (Cotton [4]; 5 kg/hectare) was 4-5 and the “degree of damage, Cotton” value (Cotton [6]; 0.6 Kg/hectare) was 4-5. The “degree of damage, Oats” value (Oats [8]; 5 kg/hectare) was 4-5, the “degree of damage, Wheat” value (Wheat [2]; 1.2 Kg/hectare) was 3-4 and the “degree of damage, Wheat” value (Wheat [2]; 2.4 Kg/hectare) was 3-4. For the same molecule, the “degree of damage, Oats” value (Oats [3]; 2.4 Kg/hectare) was 4-5.
With `CSc1nnc(C(C)C)c(=O)n1N=CC(C)C` [Compound 214, 3-methylthio-4-(isobutylidene-amino)-6-isopropyl-1,2,4-triazine-5-one] the “degree of damage, Wheat” value (Wheat [5]; 2.5 kg/hectare) was 4-5, the “degree of damage, Cotton” value (Cotton [6]; 0.6 Kg/hectare) was 4-5 and the “degree of damage, Cotton” value (Cotton [6]; 1.2 Kg/hectare) was 4-5. The “degree of damage, Oats” value (Oats [3]; 0.6 Kg/hectare) was 4-5.
In the case of `CSc1nnc(C2CCCCC2)c(=O)n1N=CC(C)C` [Compound 229, 3-methylthio-4-(isobutylidene-amino)-6-cyclohexyl-1,2,4-triazine-5-one], the “degree of damage, Wheat” value (Wheat [5]; 5 kg/hectare) is reported as 4-5, the “degree of damage, Cotton” value (Cotton [4]; 5 kg/hectare) is reported as 4-5 and the “degree of damage, Echinochloa” value (Echinochloa [7]; 1.25 kg/hectare) is reported as 4-5. The “degree of damage, Oats” value (Oats [8]; 2.5 kg/hectare) was 4-5.
In the case of `Nn1c(NCc2ccccc2)nnc(-c2ccccc2)c1=O` [Compound 102a, 3-benzylamino-4-amino-6-phenyl-1,2,4-triazine-5-one], the “degree of damage, Cotton” value (Cotton [6]; 10 Kg/hectare) is reported as 2-3.
For `CCSc1nnc(C(C)C)c(=O)n1N` [Compound 148, 3-ethylthio-4-amino-6-isopropyl-1,2,4-triazine-5-one], the “degree of damage, Stellaria” value (Stellaria; 2.4 Kg/hectare) was 4-5, the “degree of damage, Wheat” value (Wheat [5]; 1.25 kg/hectare) was 3-4 and the “degree of damage, Cotton” value (Cotton [4]; 2.5 kg/hectare) was 4-5. For the same molecule, the “degree of damage, Cotton” value (Cotton [4]; 5 kg/hectare) was 4-5, the “degree of damage, Oats” value (Oats [8]; 1.25 kg/hectare) was 4-5 and the “degree of damage, Oats” value (Oats [8]; 2.5 kg/hectare) was 4-5. For the same molecule, the “degree of damage, Oats” value (Oats [8]; 5 kg/hectare) was 4-5, the “degree of damage, Echinochloa” value (Echinochloa [1]; 0.6 Kg/hectare) was 4-5 and the “degree of damage, Echinochloa” value (Echinochloa [1]; 1.2 Kg/hectare) was 4-5. The “degree of damage, Wheat” value (Wheat [2]; 2.4 Kg/hectare) was 4-5.
In the case of `CSc1nnc(C2CCCCC2)c(=O)n1N=Cc1ccccc1` [Compound 225, 3-methylthio-4-(benzylidene-amino)-6-cyclohexyl-1,2,4-triazine-5-one], the “degree of damage, Cotton” value (Cotton [4]; 2.5 kg/hectare) is reported as 4-5, the “degree of damage, Echinochloa” value (Echinochloa [7]; 1.25 kg/hectare) is reported as 4-5 and the “degree of damage, Echinochloa” value (Echinochloa [1]; 0.6 Kg/hectare) is reported as 4-5. For the same molecule, the “degree of damage, Wheat” value (Wheat [2]; 0.6 Kg/hectare) was 3-4 and the “degree of damage, Oats” value (Oats [3]; 2.4 Kg/hectare) was 4-5.
In the case of `CCNc1nnc(C(C)(C)C)c(=O)n1N` [Compound 176, 3-ethylamino-4-amino-6-tert.-butyl-1,2,4-triazine-5-one], the “degree of damage, Stellaria” value (Stellaria; 0.6 Kg/hectare) is reported as 4-5 and the “degree of damage, Echinochloa” value (Echinochloa [1]; 2.4 Kg/hectare) is reported as 4-5.
For `CNc1nnc(C(C)(C)C)c(=O)n1N=Cc1ccc(Cl)cc1` [Compound 233, 3-methylamino-4-(4'-chloro-benzylidene-amino)-6-tert.-butyl-1,2,4-triazine-5-one], the “degree of damage, Cotton” value (Cotton [6]; 2.4 Kg/hectare) was 4-5, the “degree of damage, Echinochloa” value (Echinochloa [7]; 5 kg/hectare) was 4-5 and the “degree of damage, Wheat” value (Wheat [2]; 0.6 Kg/hectare) was 4-5. For the same molecule, the “degree of damage, Wheat” value (Wheat [2]; 1.2 Kg/hectare) was 4-5, the “degree of damage, Oats” value (Oats [3]; 1.2 Kg/hectare) was 4-5 and the “degree of damage, Oats” value (Oats [3]; 2.4 Kg/hectare) was 4-5.
With `CSc1nnc(C(C)C)c(=O)n1N=Cc1ccc(Cl)cc1` [Compound 201, 3-methylthio-4-(4'-chloro-benzylidene-amino)-6-isopropyl-1,2,4-triazine-5-one] the “degree of damage, Stellaria” value (Stellaria; 1.2 Kg/hectare) was 4-5, the “degree of damage, Wheat” value (Wheat [5]; 1.25 kg/hectare) was 4-5 and the “degree of damage, Echinochloa” value (Echinochloa [1]; 1.2 Kg/hectare) was 4-5.
For `CSc1nnc(C(C)C)c(=O)n1N=C(C)C` [Compound 194, 3-methylthio-4-(prop-2'-ylidene-amino)-6-isopropyl-1,2,4-triazine-5-one], the “degree of damage, Wheat” value (Wheat [5]; 1.25 kg/hectare) was 4-5, the “degree of damage, Cotton” value (Cotton [4]; 1.25 kg/hectare) was 4-5 and the “degree of damage, Cotton” value (Cotton [6]; 0.6 Kg/hectare) was 4-5. The “degree of damage, Wheat” value (Wheat [2]; 1.2 Kg/hectare) was 4-5 and the “degree of damage, Wheat” value (Wheat [2]; 2.4 Kg/hectare) was 4-5.
`C#CCSc1nnc(C(C)C)c(=O)n1N` [Compound 158, 3-propargylthio-4-amino-6-isopropyl-1,2,4-triazine-5-one] was tested, and the “degree of damage, Stellaria” value (Stellaria; 1.2 Kg/hectare) was 4-5.
For `CSc1nnc(C(C)C)c(=O)n1N=Cc1ccco1` [Compound 203, 3-methylthio-4-(furfur-2'-ylidene-amino)-6-isopropyl-1,2,4-triazine-5-one], the “degree of damage, Stellaria” value (Stellaria; 2.4 Kg/hectare) was 4-5, the “degree of damage, Cotton” value (Cotton [4]; 1.25 kg/hectare) was 4-5 and the “degree of damage, Wheat” value (Wheat [2]; 1.2 Kg/hectare) was 4-5.
In the case of `CSc1nnc(C(C)C)c(=O)n1N=Cc1ccc(C)cc1` [Compound 213, 3-methylthio-4-(4'-methyl-benzylidene-amino)-6-isopropyl-1,2,4-triazine-5-one], the “degree of damage, Stellaria” value (Stellaria; 0.6 Kg/hectare) is reported as 4-5, the “degree of damage, Cotton” value (Cotton [4]; 2.5 kg/hectare) is reported as 4-5 and the “degree of damage, Cotton” value (Cotton [4]; 5 kg/hectare) is reported as 4-5. For the same molecule, the “degree of damage, Echinochloa” value (Echinochloa [7]; 1.25 kg/hectare) was 4-5, the “degree of damage, Oats” value (Oats [8]; 1.25 kg/hectare) was 4-5 and the “degree of damage, Oats” value (Oats [8]; 2.5 kg/hectare) was 4-5. For the same molecule, the “degree of damage, Echinochloa” value (Echinochloa [1]; 0.6 Kg/hectare) was 4-5, the “degree of damage, Wheat” value (Wheat [2]; 0.6 Kg/hectare) was 2-3 and the “degree of damage, Wheat” value (Wheat [2]; 1.2 Kg/hectare) was 3-4. For the same molecule, the “degree of damage, Oats” value (Oats [3]; 1.2 Kg/hectare) was 3-4 and the “degree of damage, Oats” value (Oats [3]; 2.4 Kg/hectare) was 4-5.
With `CCCCNc1nnc(-c2ccccc2)c(=O)n1N` [Compound 100a, 3-n-butylamino-4-amino-6-phenyl-1,2,4-triazine-5-one] the “degree of damage, Cotton” value (Cotton [6]; 10 Kg/hectare) was 2-3, the “degree of damage, Echinochloa” value (Echinochloa [1]; 10 Kg/hectare) was 2-3 and the “degree of damage, Wheat” value (Wheat [2]; 10 Kg/hectare) was 2-3.
For `CSc1nnc(C2CCCCC2)c(=O)n1N=CC1CCCCC1` [Compound 228, 3-methylthio-4-(hexahydrobenzylidene-amino)-6-cyclohexyl-1,2,4-triazine-5-one], the “degree of damage, Wheat” value (Wheat [5]; 5 kg/hectare) was 4-5, the “degree of damage, Oats” value (Oats [8]; 5 kg/hectare) was 4-5 and the “degree of damage, Echinochloa” value (Echinochloa [1]; 0.6 Kg/hectare) was 4-5. For the same molecule, the “degree of damage, Wheat” value (Wheat [2]; 0.6 Kg/hectare) was 4-5, the “degree of damage, Wheat” value (Wheat [2]; 1.2 Kg/hectare) was 4-5 and the “degree of damage, Oats” value (Oats [3]; 1.2 Kg/hectare) was 4-5.
`CN(C)c1nnc(-c2ccccc2)c(=O)n1N` [Compound 16, 3-dimethylamino-4-amino-6-phenyl-1,2,4-triazine-5-one] was tested, and the “degree of damage, Wheat” value (Wheat [5]; 1.25 kg/hectare) was 4-5, the “degree of damage, Wheat” value (Wheat [5]; 2.5 kg/hectare) was 4-5 and the “degree of damage, Wheat” value (Wheat [5]; 5 kg/hectare) was 4-5. For the same molecule, the “degree of damage, Cotton” value (Cotton [4]; 2.5 kg/hectare) was 4-5, the “degree of damage, Echinochloa” value (Echinochloa [7]; 1.25 kg/hectare) was 4-5 and the “degree of damage, Wheat” value (Wheat [2]; 1.2 Kg/hectare) was 4-5.
